Reference: patent publication US11634417B2 (Array BioPharma Inc., priority 2019, dated 2023)
Read-outs that look alike come from different tables or passages of the source.

Key:
[1] = system: ERK1/2 (Thr202/Tyr204) phosphorylation in KYSE520 cells; test: Cellular Phospho-p44/42 MAPK (Erk1/2) (Thr202/Tyr204) assay, In-Cell Western; format: cell-based; details: Homo sapiens
Experimental: Inhibition of ERK1/2 (Thr202/Tyr204) phosphorylation was determined by the following cellular assay, which comprises incubating cells with a compound for 1 hour and quantifying pERK signal by In-Cell Western on fixed cells and normalizing to GAPDH signal. KYSE520 cells were obtained from DSMZ and grown in RPMI supplemented with 10% fetal bovine serum, penicillin/streptomycin, 2 mM L-alanyl-L-glutamine dipeptide in 0.85% NaCl (Glutamax™), non-essential amino acids, and sodium pyruvate. Cells were plated in 96-well plates at 30,000 cells/well and allowed to attach overnight at 37° C./5% CO2. Cells were treated with compounds prepared as a 10-point, 1:3 dilution series (range: 20 μM-1 nM), with a final DMSO concentration of 0.5%. After 1 hour incubation, cells were fixed in 3.7% formaldehyde in Dulbecco's phosphate-buffered saline (“dPBS”) at room temperature for 20 minutes. Cells were then washed with dPBS and permeabilized in 100% MeOH at room temperature for 10 minutes. Following permeabilization, cells were washed in dPBS and incubated in LI-COR Blocking Buffer (LI-COR Biosciences, Cat #927-40000) for 1 hour or longer. Plates were then incubated with an antibody specific for the MEK-dependent ERK1/2 phosphorylation sites, threonine 202 and tyrosine 204 (Cell Signaling Technologies; Cat #9101), downstream of SHP2 in the MAP kinase signal transduction pathway, as well as GAPDH (Millipore; Cat #MAB374). pErk1/2 (Thr202/Tyr204) antibody was diluted in LI-COR blocking buffer containing 0.05% polysorbate-20 (Tween-20) at 1:250; GAPDH was diluted at 1:2,500. The plates were incubated overnight at 4° C. After washing with PBS/0.05% Tween-20, the cells were incubated with fluorescently-labeled secondary antibodies (Anti-rabbit-Alexa Flour680, Invitrogen Cat #A21109; Anti-mouse-IRDye800CW, Li-cor Bioscieces Cat #926-32210, both at 1:1000 dilution) for 1 hour. Cells were then washed, as above, and analyzed for fluorescence at both 680 nm and 800 nm wavelengths using the Aerius Infrared Imaging System (LI-COR Biosciences, Model 9250). Phosphorylated Erk1/2 ([…]) signal was normalized to GAPDH signal for each well. IC50 values were calculated from the normalized values using a 4-parameter fit in BioAssay software. The reported IC50 in Table 2 may be from a single assay or the mean of multiple assays.

[2] = molecular target: T1, full-length SHP2 (Homo sapiens, UniProt Q06124); test: SHP2 enzymatic assay (fluorescence intensity kinetic assay, DiFMUP hydrolysis); format: biochemical; details: 1 nM His6-tagged SHP2(2-527), 1 μM activating peptide, 50 μM DiFMUP; single assay or mean of multiple assays; read-out: Biological Example 1 IC50
T1 construct: 1 nM full-length SHP2 (His6-tagged SHP2(2-527), recombinantly expressed in E. coli and purified in-house); His6; made in house; host or cells: E. coli
T1 sequence (Q06124 2-527): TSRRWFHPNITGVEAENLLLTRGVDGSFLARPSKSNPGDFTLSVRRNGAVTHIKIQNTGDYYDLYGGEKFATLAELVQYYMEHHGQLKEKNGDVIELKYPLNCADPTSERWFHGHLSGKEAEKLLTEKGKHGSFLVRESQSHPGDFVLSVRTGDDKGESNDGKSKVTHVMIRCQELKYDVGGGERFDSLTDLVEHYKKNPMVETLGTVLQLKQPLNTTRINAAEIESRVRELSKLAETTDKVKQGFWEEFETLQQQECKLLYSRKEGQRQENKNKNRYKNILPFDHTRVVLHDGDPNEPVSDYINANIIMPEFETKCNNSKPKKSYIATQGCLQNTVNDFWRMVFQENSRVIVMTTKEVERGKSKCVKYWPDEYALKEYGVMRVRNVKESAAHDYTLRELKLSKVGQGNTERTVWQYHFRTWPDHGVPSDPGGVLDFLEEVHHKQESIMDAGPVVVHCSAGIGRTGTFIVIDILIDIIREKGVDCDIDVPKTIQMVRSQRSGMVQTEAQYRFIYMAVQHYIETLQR
Experimental: A fluorescence intensity kinetic assay was configured for full-length SHP2 that monitors the amount of 6,8-difluoro-7-hydroxy-4-methylcoumarin (“DiFMU”) formed upon hydrolysis of 6,8-difluoro-4-methylumbelliferyl phosphate (“DiFMUP”) by SHP2. […] Low control wells lacked enzyme. The assays were initiated by the addition of a mixture of SHP2 and the activating peptide, and following a 15 second mix on an orbital shaker, were read in kinetic mode for 15 minutes (30 seconds/cycle) at ambient temperature on a PerkinElmer EnVision microplate reader (kEx=355 nm, kEm=460 nm). Initial velocities (slopes of the tangents at t=0) were estimated from exponential fits to the slightly nonlinear progress curves and then were converted to percent of control (“POC”) using the following equation:
[formula] • Where: xmax Average Uninhibited Controls • Xmin Average Background A 4-parameter logistic model was the fit to the POC data for each compound. From that fit, the IC50 was estimated and is defined as the concentration of compound at which the curve crosses 50 POC.

[3] = KYSE-520, KYSE520 cells, 1 hour incubation, pERK signal normalized to GAPDH, single assay or mean of multiple assays, read-out: Biological Example 2 IC50
[4] = KYSE-520, 1 h, read-out: Biological Example 2 IC50 (nM)

Structure (SMILES)	IC50 [2] [µM]	IC50 [1, 3] [nM]	IC50 [1, 4] [nM]
C[C@@H]1OCC2(CCN(c3ncc(Sc4ccnc(N)c4Cl)nn3)CC2)[C@@H]1N [Example 1, (3S,4S)-8-(6-((2-amino-3-chloropyridin-4-yl)thio)-1,2,4-triazin-3-yl)-3-methyl-2-oxa-8-azaspiro[4.5]decan-4-amine]	0.059	55	
C[C@@H]1OCC2(CCN(c3ncc(-c4cccc(Cl)c4Cl)nn3)CC2)[C@@H]1N [Example 2, (3S,4S)-8-(6-(2,3-dichlorophenyl)-1,2,4-triazin-3-yl)-3-methyl-2-oxa-8-azaspiro[4.5]decan-4-amine]	0.076	2780	
Nc1nccc(Sc2cnc(N3[C@H]4CC[C@H]3CC(N)C4)nn2)c1Cl (stereo partly drawn) [Example 3, (1R,3s,5S)-8-(6-((2-amino-3-chloropyridin-4-yl)thio)-1,2,4-triazin-3-yl)-8-azabicyclo[3.2.1]octan-3-amine]	0.626	1290	
Cc1nc(N2CCC3(CC2)CO[C@@H](C)[C@H]3N)nnc1Sc1ccnc(N)c1Cl [Example 4, (3S,4S)-8-(6-((2-amino-3-chloropyridin-4-yl)thio)-5-methyl-1,2,4-triazin-3-yl)-3-methyl-2-oxa-8-azaspiro[4.5]decan-4-amine]	0.114	519	
Cc1nc(N2CCC3(CC2)CO[C@@H](C)[C@H]3N)nnc1-c1cccc(Cl)c1Cl [Example 5, (3S,4S)-8-(6-(2,3-dichlorophenyl)-5-methyl-1,2,4-triazin-3-yl)-3-methyl-2-oxa-8-azaspiro[4.5]decan-4-amine]	0.028	337	
Nc1nccc(Sc2cnc(N3CCC4(CC3)Cc3ccccc3[C@H]4N)nn2)c1Cl [Example 6, (S)-1′-(6-((2-amino-3-chloropyridin-4-yl)thio)-1,2,4-triazin-3-yl)-1,3-dihydrospiro[indene-2,4′-piperidin]-1-amine]			2
C[C@@H]1OCC2(CCN(c3ncc(Sc4cccc(Cl)c4Cl)nn3)CC2)[C@@H]1N [Example 7, (3S,4S)-8-(6-((2,3-dichlorophenyl)thio)-1,2,4-triazin-3-yl)-3-methyl-2-oxa-8-azaspiro[4.5]decan-4-amine]	0.017	89	
C[C@@H]1OCC2(CCN(c3ncc(Sc4ccnc5[nH]ccc45)nn3)CC2)[C@@H]1N [Example 8, (3S,4S)-8-(6-((1H-pyrrolo[2,3-6]pyridin-4-yl)thio)-1,2,4-triazin-3-yl)-3-methyl-2-oxa-8-azaspiro[4.5]decan-4-amine]	0.069	48	
N[C@@H]1c2ccccc2CC12CCN(c1ncc(N3CCc4cnccc43)nn1)CC2 [Example 15, (S)-1′-(6-(2,3-dihydro-1H-pyrrolo[3,2-c]pyridin-1-yl)-1,2,4-triazin-3-yl)-1,3-dihydrospiro[indene-2,4′-piperidin]-1-amine]	7.95		
Nc1nccc(Sc2cnc(N3CCC4(CC3)Cc3ccccc3[C@@H]4N)nn2)c1Cl [Example 20, (R)-1′-(6-((2-amino-3-chloropyridin-4-yl)thio)-1,2,4-triazin-3-yl)-1,3-dihydrospiro[indene-2,4′-piperidin]-1-amine]			206
C[C@@H]1OCC2(CCN(c3ncc(Sc4ccnc(N)c4F)nn3)CC2)[C@@H]1N [Example 21, (3S,4S)-8-(6-((2-amino-3-fluoropyridin-4-yl)thio)-1,2,4-triazin-3-yl)-3-methyl-2-oxa-8-azaspiro[4.5]decan-4-amine]	11.1		
N[C@@H]1c2ccccc2CC12CCN(c1ncc([Se]c3ccccc3)nn1)CC2 [Example 40, (S)-1′-(6-(phenylselanyl)-1,2,4-triazin-3-yl)-1,3-dihydrospiro[indene-2,4′-piperidin]-1-amine]	0.008		
[2H][C@@]1(N)c2ccccc2CC12CCN(c1ncc(Sc3ccnc(N)c3Cl)nn1)CC2 [Example 74, (S)-1′-(6-((2-amino-3-chloropyridin-4-yl)thio)-1,2,4-triazin-3-yl)-1,3-dihydrospiro[indene-2,4′-piperidin]-1-d-1-amine]			1
[2H][C@]1(N)c2ccccc2CC12CCN(c1ncc(Sc3ccnc(N)c3Cl)nn1)CC2 [Example 75, (R)-1′-(6-((2-amino-3-chloropyridin-4-yl)thio)-1,2,4-triazin-3-yl)-1,3-dihydrospiro[indene-2,4′-piperidin]-1-d-1-amine]			100

The next lines start with results.

IC50 [2] [µM]	Structure (SMILES)	IC50 [1, 3] [nM]	IC50 [1, 4] [nM]
0.079	CNc1nccc(Sc2cnc(N3CCC4(CC3)Cc3cc(C#N)ccc3[C@H]4N)nn2)c1Cl (single isomer, unassigned) [Example 41]	19	
0.209	CNc1nccc(Sc2cnc(N3CCC4(CC3)Cc3cc(C#N)ccc3[C@@H]4N)nn2)c1Cl (single isomer, unassigned) [Example 42]	813	
0.142	COc1cnc2c(c1)[C@H](N)C1(CCN(c3ncc(Sc4ccnc(N)c4Cl)nn3)CC1)C2 (single isomer, unassigned) [Example 43]	509	
0.037	COc1cnc2c(c1)[C@@H](N)C1(CCN(c3ncc(Sc4ccnc(N)c4Cl)nn3)CC1)C2 (single isomer, unassigned) [Example 44]	4	
1.37	C[C@@H]1OCC2(CCN(c3ncc(Sc4ccc(N)nc4C(F)(F)F)nn3)CC2)[C@@H]1N [Example 56, (3S,4S)-8-(6-((6-amino-2-(trifluoromethyl)pyridin-3-yl)thio)-1,2,4-triazin-3-yl)-3-methyl-2-oxa-8-azaspiro[4.5]decan-4-amine]		
0.033	N[C@@H]1c2ccccc2CC12CCN(c1ncc(Sc3cnc4ncccn34)nn1)CC2 [Example 68, (S)-1′-(6-(imidazo[1,2-a]pyrimidin-3-ylthio)-1,2,4-triazin-3-yl)-1,3-dihydrospiro[indene-2,4′-piperidin]-1-amine]		
16.4	N[C@@H]1c2ccccc2CC12CCN(c1ncc(Oc3cnc4[nH]ccc4c3)nn1)CC2 [Example 72, (S)-1′-(6-((1H-pyrrolo[2,3-b]pyridin-5-yl)oxy)-1,2,4-triazin-3-yl)-1,3-dihydrospiro[indene-2,4′-piperidin]-1-amine]		
15	Nc1nccc(Sc2cnc(N3C4CCC3CC3(Cc5ccccc5[C@H]3N)C4)nn2)c1Cl (stereo partly drawn) [Example 78, (1′S)-8-(6-((2-amino-3-chloropyridin-4-yl)thio)-1,2,4-triazin-3-yl)-1′,3′-dihydro-8-azaspiro[bicyclo[3.2.1]octane-3,2′-inden]-1′-amine]		
